Biological target: T1, human RXFP1 (Homo sapiens, UniProt Q9HBX9)
T1 construct: expressed in transfected cells
T1 sequence (Q9HBX9 1-757): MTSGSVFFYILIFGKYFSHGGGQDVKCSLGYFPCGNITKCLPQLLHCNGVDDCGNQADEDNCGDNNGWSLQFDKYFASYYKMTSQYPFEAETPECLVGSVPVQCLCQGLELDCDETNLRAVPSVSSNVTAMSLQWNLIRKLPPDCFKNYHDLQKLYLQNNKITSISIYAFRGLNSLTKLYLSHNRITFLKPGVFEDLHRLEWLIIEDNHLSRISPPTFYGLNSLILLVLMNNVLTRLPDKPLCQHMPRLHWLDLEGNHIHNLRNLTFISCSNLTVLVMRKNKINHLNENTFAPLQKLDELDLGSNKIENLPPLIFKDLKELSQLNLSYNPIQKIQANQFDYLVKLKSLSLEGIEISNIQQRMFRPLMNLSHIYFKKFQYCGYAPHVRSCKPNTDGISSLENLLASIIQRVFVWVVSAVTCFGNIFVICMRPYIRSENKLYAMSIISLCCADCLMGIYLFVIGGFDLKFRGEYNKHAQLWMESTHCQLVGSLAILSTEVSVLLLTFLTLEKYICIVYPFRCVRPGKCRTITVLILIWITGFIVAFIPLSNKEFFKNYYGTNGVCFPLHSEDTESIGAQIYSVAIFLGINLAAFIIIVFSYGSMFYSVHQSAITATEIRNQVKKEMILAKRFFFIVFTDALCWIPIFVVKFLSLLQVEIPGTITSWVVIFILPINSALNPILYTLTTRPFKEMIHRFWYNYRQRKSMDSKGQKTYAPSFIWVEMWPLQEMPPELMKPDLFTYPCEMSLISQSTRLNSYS
Assay: hRXFP1 HEK293 cAMP assay (HTRF)
Assay type: cell-based
Details: HEK293 cells stably expressing human RXFP1, 30 min at room temperature
How it was run: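 HEK293 cells stably expressing human RXFP1 were suspended in HBSS (Ca/Mg) with 20 mM HEPES, 0.05% BSA and 0.5 mM IBMX, then treated with compounds (0.010 nM–50 μM, 2% DMSO final) for 30 min at room temperature. Intracellular cAMP was measured by HTRF, and potency was derived from 4-parameter logistic fits.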

Molecule `COCC/C=C1\C2CCC1[C@H](C(=O)Nc1ccc(F)c(C(F)(F)F)c1)C2NC(=O)c1cc(CCC(C)(C)O)ccc1OC` (stereo partly drawn) [Example 162, (7Z)-N-[4-fluoro-3-(trifluoromethyl)phe-nyl]-3-[5-(3-hydroxy-3-methylbutyl)-2-methoxybenzamido]-7-(3-methoxypropylidene) bicyclo[2.2.1]heptane-2-carboxamide] has an EC50 of 1240 nM.

Work on “(7Z)-7-(4,4- dimethylpentylidene)- N-[4-fluoro-3- (trifluoromethyl)phe- nyl]-3-[5-(3- hydroxypropyl)-2- methoxybenzamido] bicyclo[2.2.1]heptane- 2-carboxamide [Example 164]” yielded an EC50 of 67 nM.

For `COc1ccc(C2CCCCC2O)cc1C(=O)N[C@@H]1C2CCC(/C2=C/C(F)(F)F)[C@@H]1C(=O)Nc1ccc(F)c(C(F)(F)F)c1` (single isomer, unassigned) [Example 57], the EC50 was 1440 nM.

With `COc1ccc(S(=O)(=O)N2CCS(=O)(=O)CC2)cc1C(=O)N[C@H]1[C@@H](C(=O)Nc2ccc(F)c(C(F)(F)F)c2)[C@H]2CC[C@@H]1/C2=C\C1CC1` [Example 222, (1R,2S,3R,4R,7Z)-7-(cyclopropylmethylidene)-3-{5-[(1,1-dioxo-1λ^6-thiomorpholin-4-yl)sulfonyl]-2-methoxybenzamido}-N-[4-fluoro-3-(trifluoromethyl)phenyl]bicyclo[2.2.1] heptane-2-carboxamide] the EC50 was 84.9 nM.

With `COc1ccc(CCC(C)(C)O)cc1C(=O)NC1C2CCC(/C2=C/CC(C)(C)C)[C@@H]1C(=O)Nc1ccc(F)c(C(F)(F)F)c1` (stereo partly drawn) [Example 163, (7Z)-7-(3,3-dimethylbutylidene)-N-[4-fluoro-3-(trifluoromethyl)phe-nyl]-3-[5-(3-hydroxy-3-methylbutyl)-2-methoxybenzamido] bicyclo[2.2.1]heptane-2-carboxamide] the EC50 was 278 nM.

`COc1c(F)cc(C(=O)N2CC(S(C)(=O)=O)C2)cc1C(=O)N[C@H]1[C@@H](C(=O)Nc2ccc(F)c(C(F)(F)F)c2)[C@H]2CC[C@@H]1/C2=C\C1CCCC1` [Example 365, (1R,2S,3R,4R,7Z)-7-(cyclopentyl-methylidene)-N-[4-fluoro-3-(trifluoromethyl)phenyl]-3-[3-fluoro-5-(3-methanesulfonyl-azetidine-1-carbonyl)-2-methoxybenzamido] bicyclo[2.2.1]heptane-2-carboxamide] was tested, and the EC50 was 2.8 nM.

Molecule `COC/C=C/c1ccc(OC)c(C(=O)N[C@@H]2C3CCC(C3=C(C)C)[C@@H]2C(=O)Nc2ccc(F)c(C(F)(F)F)c2)c1` (stereo partly drawn) [Example 31, (2S,3R)—N-[4-fluoro-3-(trifluoromethyl)phenyl]-3-{2-methoxy-5-[(1E)-3-methoxyprop-1-en-1-yl]benzamido}-7-(propan-2-ylidene) bicyclo[2.2.1]heptane-2-carboxamide] has an EC50 of 180 nM.

For `COc1ccc(C2CCCC(O)C2)cc1C(=O)N[C@@H]1C2CCC(/C2=C/C(F)(F)F)[C@@H]1C(=O)Nc1ccc(F)c(C(F)(F)F)c1` (single isomer, unassigned) [Example 36], the EC50 was 442 nM.

Molecule `COc1ccc(/C=C/C(=O)N[C@H]2C[C@@H](O)C2)cc1C(=O)N[C@@H]1C2CCC(/C2=C/C2CC2)[C@@H]1C(=O)Nc1ccc(F)c(C(F)(F)F)c1` (stereo partly drawn) [Example 128, (2S,3R,7Z)-7-(cyclopropylmethyli-dene)-N-[4-fluoro-3-(trifluoromethyl)phe-nyl]-3-{2-methoxy-5-[(1E)-2-{[(1s,3s)-3-hydroxycyclobutyl]carbamoyl}eth-1-en-1-yl]benzamido}bicyclo [2.2.1]heptane-2-carboxamide] has an EC50 of 96 nM.

`COc1ccc(CO)cc1C(=O)N[C@H]1[C@@H](C(=O)Nc2ccc(F)c(C(F)(F)F)c2)[C@H]2CC[C@@H]1/C2=C\C(F)(F)F` [Example 10, (1R,2S,3R,4R,Z)—N-(4-fluoro-3-(trifluoromethyl)phenyl)-3-(5-(hydroxymethyl)-2-methoxybenzamido)-7-(2,2,2-trifluoroethylidene) bicyclo[2.2.1]heptane-2-carboxamide] gave an EC50 of 962 nM.

`COc1ccc(C(=O)N2CCCC(CO)C2)cc1C(=O)N[C@H]1[C@@H](C(=O)Nc2ccc(F)c(C(F)(F)F)c2)[C@H]2CC[C@@H]1/C2=C\C1CC1` (stereo partly drawn) [Example 235, (1R,2S,3R,4R,7Z)-7-(cyclopropylmethyl-idene)-N-[4-fluoro-3-(trifluoromethyl)phenyl]-3-{5-[3-(hydroxymethyl)piperidine-1-carbonyl]-2-methoxybenzamido} bicyclo[2.2.1] heptane-2-carboxamide] showed an EC50 of 130 nM.

`COc1ccc(CCCNC(=O)C2CCC2)cc1C(=O)N[C@@H]1C2CCC(/C2=C/C(F)(F)F)[C@@H]1C(=O)Nc1ccc(F)c(C(F)(F)F)c1` (stereo partly drawn) [Example 112, (2S,3R,7Z)-3-{5-[3-(cyclobutylformami-do)propyl]-2-methoxybenzamido}-N-[4-fluoro-3-(trifluoromethyl)phe-nyl]-7-(2,2,2-trifluoroethylidene)bi-cyclo[2.2.1]heptane-2-carboxamide] was tested, and the EC50 was 324 nM.

`COc1ccc(/C=C/C(=O)N2CC(O)C2)cc1C(=O)N[C@H]1[C@@H](C(=O)Nc2ccc(F)c(C(F)(F)F)c2)[C@H]2CC[C@@H]1/C2=C\C(F)(F)F` [Example 314] gave an EC50 of 66.2 nM.

Work on `COc1ccc(CCCCC(F)(F)F)cc1C(=O)NC1C2CCC(/C2=C/C2CCC2)[C@@H]1C(=O)Nc1ccc(F)c(C(F)(F)F)c1` (stereo partly drawn) [Example 193, (7Z)-7-(cyclobutylmethyli-dene)-N-[4-fluoro-3-(trifluoromethyl)phe-nyl]-3-[2-methoxy-5-(5,5,5-trifluoropentyl)benz-amido]bicyclo[2.2.1] heptane-2-carboxamide] yielded an EC50 of 55 nM.

`COc1ccc(CCCO)cc1C(=O)N[C@H]1[C@@H](C(=O)Nc2ccc(F)c(C(F)(F)F)c2)[C@H]2CC[C@@H]1/C2=C\C(C)C` [Example 157, (1R,2S,3R,4R,Z)—N-(4-fluoro-3-(trifluoromethyl)phenyl)-3-(5-(3-hydroxypropyl)-2-methoxybenzamido)-7-(2-methylpropylidene) bicyclo[2.2.1]heptane-2-carboxamide] gave an EC50 of 54 nM.

`COc1ccc(CCCO)cc1C(=O)NC1C2CCC(/C2=C/C2CC(F)(F)C2)[C@@H]1C(=O)Nc1ccc(F)c(C(F)(F)F)c1` (stereo partly drawn) [Example 159, (2S,3R,7Z)-7-[(3,3-difluorocyclobutyl)methylidene]-N-[4-fluoro-3-(trifluoromethyl)phe-yl]-3-[5-(3-hydroxypropyl)-2-methoxybenzamideo] bicyclo[2.2.1]heptane-2-carboxamide] was tested, and the EC50 was 43 nM.

`COc1ccc(COCC2CC2(F)F)cc1C(=O)N[C@@H]1C2CCC(/C2=C/C2CC2)[C@@H]1C(=O)Nc1ccc(F)c(C(F)(F)F)c1` (stereo partly drawn) [Example 15, (2S,3R,7Z)-7-(cyclopropylmethyli-dene)-3-(5-{[(2,2-difluorocyclopropyl)methoxy]methyl}-2-methoxybenzamido)-N-[4-fluoro-3-(trifluoromethyl)phe-nyl]bicyclo[2.2.1]hept-ane-2-carboxamide] was tested, and the EC50 was 36 nM.

In the case of `COc1ccc(C(=O)N2CC3(C2)CS(=O)(=O)C3)cc1C(=O)N[C@H]1[C@@H](C(=O)Nc2ccc(F)c(C(F)(F)F)c2)[C@H]2CC[C@@H]1/C2=C\C1CC1` [Example 243, (1R,2S,3R,4R,7Z)-7-(cyclopropyl-methylidene)-3-(5-{2,2-dioxo-2λ^6-thia-6-azaspiro[3.3]heptane-6-carbonyl}-2-methoxybenzamido)-N-[4-fluoro-3-(trifluoromethyl)phenyl]bicyclo[2.2.1] heptane-2-carboxamide], the EC50 is reported as 11.9 nM.

Work on `COc1ccc(CCCO)cc1C(=O)N[C@@H]1C2CCC(/C2=C/C2CCC2)[C@@H]1C(=O)Nc1ccc(F)c(C(F)(F)F)c1` (stereo partly drawn) [Example 86, (2S,3R,7Z)-7-(cyclobutylmethyli-dene)-N-[4-fluoro-3-(trifluoromethyl)phe-nyl]-3-[5-(3-hydroxypropyl)-2-methoxybenzamido] bicyclo[2.2.1]heptane-2-carboxamide] yielded an EC50 of 45 nM.

For `COc1ccc(C#CCCCCOC(=O)NC2CCC2)cc1C(=O)N[C@@H]1C2CCC(/C2=C/C(F)(F)F)[C@@H]1C(=O)Nc1ccc(F)c(C(F)(F)F)c1` (stereo partly drawn) [Example 81, 6-(3-{[(2R,3S,7Z)-3-{[4-fluoro-3-(trifluoromethyl)phe-nyl]carbamoyl}-7-(2,2,2-trifluoroethylidene)bi-cyclo[2.2.1]heptan-2-yl]carbamoyl}-4-methoxyphenyl)hex-5-yn-1-yl N-cyclobutylcarbamate], the EC50 was 373 nM.

For `COc1ccc(C2CCCC(NC(=O)C3CCOCC3)C2)cc1C(=O)N[C@@H]1C2CCC(/C2=C/C(F)(F)F)[C@@H]1C(=O)Nc1ccc(F)c(C(F)(F)F)c1` (single isomer, unassigned) [Example 49], the EC50 was 833 nM.

From patent publication US20250268903A1, “RXFP1 AGONISTS” (BRISTOL-MYERS SQUIBB COMPANY, priority 2021, published 2025)
